The values below come from paper PMC7701510, “Identification of HN252 as a potent inhibitor of protein phosphatase PPM1B” (Journal of Cellular and Molecular Medicine, 2020).

One series deals with T1, PPM1G (Homo sapiens, UniProt O15355).
T1 sequence (O15355 1-546): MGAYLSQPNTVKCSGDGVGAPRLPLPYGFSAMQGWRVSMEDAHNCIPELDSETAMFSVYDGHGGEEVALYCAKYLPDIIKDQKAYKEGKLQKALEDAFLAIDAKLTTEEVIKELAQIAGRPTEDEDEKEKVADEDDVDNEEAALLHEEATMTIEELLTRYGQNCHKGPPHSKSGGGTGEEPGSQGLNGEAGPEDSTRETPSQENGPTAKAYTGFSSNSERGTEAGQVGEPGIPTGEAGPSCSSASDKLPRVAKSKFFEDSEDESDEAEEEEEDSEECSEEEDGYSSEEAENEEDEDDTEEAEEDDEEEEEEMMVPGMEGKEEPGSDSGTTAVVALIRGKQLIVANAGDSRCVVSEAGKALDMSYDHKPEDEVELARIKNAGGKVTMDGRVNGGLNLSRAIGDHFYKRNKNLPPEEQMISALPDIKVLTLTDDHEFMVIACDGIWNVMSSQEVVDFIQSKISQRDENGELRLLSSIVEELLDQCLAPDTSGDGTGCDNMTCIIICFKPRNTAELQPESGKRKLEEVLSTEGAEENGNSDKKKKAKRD
Kind of series: pNPP hydrolysis phosphatase assay (selectivity panel). The following applies: pNPP as substrate. Type of series: biochemical.

The next series has as its target T2, PHLPP2 (Homo sapiens, UniProt Q6ZVD8).
T2 sequence (Q6ZVD8 1-1323): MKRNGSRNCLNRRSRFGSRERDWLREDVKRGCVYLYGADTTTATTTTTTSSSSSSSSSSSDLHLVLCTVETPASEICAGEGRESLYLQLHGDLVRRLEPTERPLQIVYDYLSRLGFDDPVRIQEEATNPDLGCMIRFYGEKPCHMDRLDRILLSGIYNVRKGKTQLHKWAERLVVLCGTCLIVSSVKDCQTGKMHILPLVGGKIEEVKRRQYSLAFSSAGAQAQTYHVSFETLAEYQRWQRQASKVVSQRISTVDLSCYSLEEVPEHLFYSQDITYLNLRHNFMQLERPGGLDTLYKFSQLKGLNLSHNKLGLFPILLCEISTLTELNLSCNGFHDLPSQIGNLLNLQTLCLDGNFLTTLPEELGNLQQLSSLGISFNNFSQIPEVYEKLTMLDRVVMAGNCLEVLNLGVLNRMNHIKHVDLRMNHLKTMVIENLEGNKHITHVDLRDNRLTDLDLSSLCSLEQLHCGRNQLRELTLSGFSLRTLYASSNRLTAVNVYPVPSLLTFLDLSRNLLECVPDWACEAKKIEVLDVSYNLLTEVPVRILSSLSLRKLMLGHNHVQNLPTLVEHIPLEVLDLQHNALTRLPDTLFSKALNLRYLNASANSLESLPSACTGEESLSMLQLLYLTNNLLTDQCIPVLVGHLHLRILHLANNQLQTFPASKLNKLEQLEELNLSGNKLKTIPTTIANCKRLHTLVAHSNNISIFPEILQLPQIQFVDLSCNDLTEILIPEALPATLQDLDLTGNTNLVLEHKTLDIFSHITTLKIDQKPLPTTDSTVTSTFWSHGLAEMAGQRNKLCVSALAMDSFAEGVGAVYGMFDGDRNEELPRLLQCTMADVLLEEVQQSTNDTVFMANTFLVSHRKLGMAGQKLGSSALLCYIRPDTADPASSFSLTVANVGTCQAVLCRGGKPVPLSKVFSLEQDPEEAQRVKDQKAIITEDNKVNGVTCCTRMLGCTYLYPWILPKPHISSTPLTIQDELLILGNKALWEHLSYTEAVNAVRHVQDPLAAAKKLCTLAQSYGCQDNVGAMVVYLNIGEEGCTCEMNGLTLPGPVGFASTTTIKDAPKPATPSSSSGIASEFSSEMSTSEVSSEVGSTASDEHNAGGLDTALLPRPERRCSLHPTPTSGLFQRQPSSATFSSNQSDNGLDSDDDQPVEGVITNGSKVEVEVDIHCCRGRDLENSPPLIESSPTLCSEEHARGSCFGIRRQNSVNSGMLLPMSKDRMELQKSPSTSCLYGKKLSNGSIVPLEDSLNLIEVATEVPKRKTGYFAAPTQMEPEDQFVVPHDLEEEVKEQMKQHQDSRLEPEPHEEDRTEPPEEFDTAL
Described as above. It counts as biochemical. The following applies: pNPP as substrate.

The nature of another series: Cytotoxicity. Type of series: cell-based. The following applies: low micromolar range; data not shown.
Series [1] relates to HL7702 cells with PPM1B shRNA. Kind of series: Phospho Explorer Antibody Microarray, PPM1B knockdown plus HN252. Conditions: in the presence of HN252.
Protocol: Phosphorylation profiling was performed by using the Phospho Explorer Antibody Microarray from Full Moon BioSystems, Inc (Sunnyvale, CA), according to the protocol which was previously described. ^24 In brief, cell lysates obtained from HL7702 cells treated by HN252 or DMSO for different hours or transfected with lentiviral vectors carrying shRNAs for 36 h were biotinylated with the Antibody Array Assay Kit (Full Moon BioSystems, Inc), and the data were analysed with the GenePixTM Pro 4.0 image analysis software.

The IC50 is the concentration that gives 50% inhibition. A low value points to higher potency. As to `Nc1cc(-c2ccc(-c3ccc(O)c(O)c3)cc2)ccc1C(=O)O` [HN252], the IC50 at PPM1G was 32.6 ± 5.54 µM; against PHLPP2 it was 20.9 ± 1.74 µM. For the same molecule, in the series “Cytotoxicity”, the cytotoxicity result is “no detectable cytotoxicity”. Besides, the “number of proteins with further enhanced phosphorylation compared to PPM1B knockdown (>1.5-fold)” value in series [1] is given as 8.
